Values after ≈ are worked out from the molar mass of the structure shown. Where a SMILES comes first, the peptide text is derived from it. [ ]: non-standard residue; d: D form. Aib = CC(C)(N)C(=O)O
Columns and labels:
[1] = Aqueous solubility of compound vs zinc concentration; format: physicochemical; settings: aqueous saline, pH 7.0, room temperature
Experimental: Compounds that may advantageously be used to practice the invention can be and were tested to determine their solubility in pH 7 water at different zinc concentrations using the following procedure.
A stock zinc solution was prepared by dissolving ZnCl2 in de-ionized water to a concentration of 100 mg/ml and adjusting the pH to 2.7 using HCl. Solutions having various ZnCl2 concentrations (“Zn Test Solutions”) were prepared by making appropriate dilutions of the stock solution.
1 mg of the compound of Example 1 was dissolved in 250 μl of each Zn Test Solution to yield a solution having 4 mg/ml of the Example 1 compound. […] The precipitation solution was centrifuged and the mother liquor analyzed using HPLC. The UV absorption area of test compound peak was measured and the concentration of the test compound in the mother liquor was determined via comparison to a calibration curve.
As a representative example of a compound that may be used to practice the invention, the compound of Example 1 was tested in the immediately foregoing assay and the following results were obtained (aqueous saline, pH 7.0, room temperature): […]

[2] = test system: adult male Sprague-Dawley rats; test: In vivo assay G.1/G.2: insulin secretion after iv glucose challenge following sc injection; set-up: species or system rat; settings: clear solution pH 4.0 with zinc (Preparation D), sc 75 μg/kg, fasted rats, iv glucose 1 g/kg at 0.25-24 h
Experimental: The day prior to the experiment, adult male Sprague-Dawley rats (Taconic, Germantown, N.Y.) that weighed approximately 300-350g were implanted with a right atrial jugular cannula under chlorohydrate anesthetic. The rats were then fasted for 18 hours prior to the injection of the appropriate test composition or vehicle control at time 0. The rats continued to be fasted throughout the entire experiment.
At time zero the rats were injected subcutaneously (sc) either with (a) the compound of Example 1 (Aib^8,^35, Arg^26,^34, Phe^31)hGLP-1(7-36)NH2) at pH 4.0 as a clear solution (i.e., the solution of Preparation D.), or (b) the compound of Example 1 at pH 7.0 as a suspension or gel (i.e., the suspension or gel of Preparation E.). […] At the appropriate time after the sc injections a 500 μl blood sample was withdrawn via the intravenous (iv) cannula and the rats were given an iv glucose challenge to test for the presence of enhanced insulin secretion. The times of the glucose challenge were 0.25, 1, 6, 12 and 24 hours post-compound injection. After the initial blood sample was withdrawn glucose (1 g/kg) was injected iv and flushed in with 500 μl heparinized saline (10U/mL). […] The amount of insulin in each sample was determined using a rat insulin enzyme-linked immunosorbant assay (ELISA) kit (American Laboratory Products Co., Windham, N.H.). […]

solubility ([1]; pH 7, ZnCl2 concentration 0 μg/mL)	solubility ([1]; pH 7, ZnCl2 concentration 80 μg/mL)	solubility ([1]; pH 7, ZnCl2 concentration 500 μg/mL)	solubility ([1]; pH 7, ZnCl2 concentration 1000 μg/mL)	solubility ([1]; pH 7, ZnCl2 concentration 1500 μg/mL)	solubility ([1]; pH 7, ZnCl2 concentration 2500 μg/mL)	Compound	duration of sustained insulin-enhancing activity inducible by glucose injection [2]
53.9 µg/mL (≈ 16.1 µM)	5.9 µg/mL (≈ 1.76 µM)	5.6 µg/mL (≈ 1.67 µM)	9.7 µg/mL (≈ 2.89 µM)	9.7 µg/mL (≈ 2.89 µM)	11 µg/mL (≈ 3.28 µM)	CC[C@H](C)[C@H](NC(=O)[C@H](Cc1ccccc1)NC(=O)[C@H](CCC(=O)O)NC(=O)[C@H](CCCNC(=N)N)NC(=O)[C@H](C)NC(=O)[C@H](C)NC(=O)[C@H](CCC(N)=O)NC(=O)CNC(=O)[C@H](CCC(=O)O)NC(=O)[C@H](CC(C)C)NC(=O)[C@H](Cc1ccc(O)cc1)NC(=O)[C@H](CO)NC(=O)[C@H](CO)NC(=O)[C@@H](NC(=O)[C@H](CC(=O)O)NC(=O)[C@H](CO)NC(=O)[C@@H](NC(=O)[C@H](Cc1ccccc1)NC(=O)[C@@H](NC(=O)CNC(=O)[C@H](CCC(=O)O)NC(=O)C(C)(C)NC(=O)[C@@H](N)Cc1c[nH]cn1)[C@@H](C)O)[C@@H](C)O)C(C)C)C(=O)N[C@@H](C)C(=O)N[C@@H](Cc1ccccc1)C(=O)N[C@@H](CC(C)C)C(=O)N[C@H](C(=O)N[C@@H](CCCNC(=N)N)C(=O)NC(C)(C)C(=O)N[C@@H](CCCNC(=N)N)C(N)=O)C(C)C [Example 1, (Aib^8,^35, Arg^26,^34, Phe^31)hGLP-1(7-36)NH2] (H-H[Aib]EGTFTSDVSSYLEGQAAREFIAFLVR[Aib]R-NH2)	–
–	–	–	–	–	–	(Aib^8,35)hGLP1(7-36)NH2	24 h

— US7521527B2 (Societe de Conseils de Recherches et d'Applications …, priority 2003, dated 2009)
